Patent publication US12016864B2, “LOX enzyme inhibiting methods and compositions” (ANOVIA BIOSCIENCES, INC., priority 2021, dated 2024)
pIC50: −log10 of the molar value.

Each compound was assayed against T1, Bovine lysyl oxidase (LOX) (Bos taurus, UniProt P33072) (assay: LOX inhibition assay, fluorometric (cadaverine / HRP / Amplex Red)). Details: LOX extracted from bovine tendon; 30 min preincubation at 37° C.; 5 mM cadaverine; read-out: Activity Range LOX.
T1 construct: from tissue; host or cells: adult bovine tendon
T1 sequence (P33072 170-418): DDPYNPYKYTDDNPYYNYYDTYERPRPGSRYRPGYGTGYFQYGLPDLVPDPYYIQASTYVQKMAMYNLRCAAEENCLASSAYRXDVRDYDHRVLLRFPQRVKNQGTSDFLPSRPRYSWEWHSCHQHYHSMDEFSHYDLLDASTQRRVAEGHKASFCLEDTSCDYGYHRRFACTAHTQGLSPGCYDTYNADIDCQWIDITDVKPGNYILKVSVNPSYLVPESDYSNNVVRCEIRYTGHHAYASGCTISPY
Type: biochemical
Experimental: The ability of compounds to inhibit prototypic LOX was determined using a fluorometric assay. This assay measures the activity of lysyl oxidases by coupling the reaction with horseradish peroxidase-catalyzed […]. The activity assay protocol uses cadaverine as substrate that releases hydrogen peroxide upon transformation by prototypic LOX enzyme present in the sample. Hydrogen peroxide was in turn detected using a red fluorescence substrate for HRP-coupled reactions (Amplex Red Enzyme Assays, Thermo Scientific Fisher). This lead to an increase in fluorescence that can be easily detected at Ex/Em=540/590 nm in a fluorescence microplate
Bovine lysyl oxidase (LOX) was extracted by adapting the methodology from [Kagan et al. 1979 and Borel et al. 2001.] from bovine tendon: Frozen adult bovine tendon was placed in room temperature water to defrost, and then membranes were removed and the remaining tissue cut into 1 cm pieces. The material was first passed through a course mesh meat grinder, and this mince was passed through a fine mesh grinder. The mince was homogenized in 10 v/w of buffer (16 mM sodium phosphate buffer pH 7.8, 400 mM NaCl) using a Waring blender. The homogenate was centrifuged at 15,000×g for 15 min at 4° C. After centrifugation, the supernatant was discarded and the pellets resuspended in 10 volumes of the same buffer. The mixture was blended again and centrifuged with the same settings. This time the pellets were blended in 3 volumes of extraction buffer (16 mM sodium phosphate buffer pH 7.8) and left to incubate at 4° C. for 2 h. After this time, the slurry was centrifuged with the same settings as described above. The supernatant was used in an ultrafiltration step to remove large proteins by size exclusion through a 30 kDalton filter (EMD Millipore). The filtrate was mixed with DEAE Sephadex (GE Healthcare), or passed over a MonoQ FPLC column. After two washes, one in 16 mM sodium phosphate buffer pH 7.8, 380 mM NaCl, and another in 16 mM sodium phosphate buffer pH 7.8, the proteins were eluted with 16 mM sodium phosphate pH 7.8, 10 μM CuSO4, and 4 M urea. Fractions containing Lox activity were collected and stored frozen at −70° C.
Final concentration in the LOX assay is shown in Table 6 below and performed in a total volume of […].
7 μl of freshly prepared reaction buffer were delivered to reaction wells. Compounds were resuspended in 100% DMSO at 10 mM and delivered into buffer using acoustic technology (Echo550; nanoliter range). A 2.85× solution of LOX protein in reaction buffer was prepared (“LOX solution”) and 7 μl of LOX solution was added into the reaction wells. Buffer only was added to column 1 for no protein control. Reactions were incubated for 30 minutes at 37° C. A 3.33× mixture of cadaverine, Amplex Red, and HRP (“Substrate/Detection Mix) was prepared and subsequently 6 μL of the mixture was added to each reaction well. Progress of reactions was monitored for 120 minutes at 37° C. using Clariostar plate reader (ex530-12, ems 600-40). For all activity assays, pan-LOX inhibitor CCT365623 (Tang et al, 2017) and LOXL2/LOXL3 inhibitor PAT-1251 (PharmaKea) were included as standards.
The slope of the linear portion of the progress curve was calculated using Clariostar software. Typical analysis interval was between 20-50 min, but varied between experiments. The background subtracted signals (No protein wells were considered as background) were converted to % activity relative to DMSO controls. Data was analyzed using GraphPad Prism 4 with “sigmoidal dose-response (variable slope)”; 4 parameters with Hill Slope. Constraints: Bottom=Constant equal to 0. Top=Must be less than 120.

Structure (SMILES)	pIC50
NCc1ccnc(S(=O)(=O)C[C@@H]2C[C@H](c3ccccc3)CN2S(=O)(=O)N2CCOCC2)c1 (racemic) [Example 195, Cis-(2-(((1-(Morpholinosulfonyl)-4-phenylpyrrolidin-2-yl)methyl)sulfonyl)pyridin-4-yl)methanamine 2,2,2-trifluoroacetate]	4.52 to 6.00
NCc1ccnc(S(=O)(=O)C[C@@H]2C[C@H](c3ccccc3)CN2S(=O)(=O)N2CCS(=O)(=O)CC2)c1 (racemic) [Example 196, cis-4-((2-(((4-(Aminomethyl)pyridin-2-yl)sulfonyl)methyl)-4-phenylpyrrolidin-1-yl)sulfonyl)thiomorpholine 1,1-dioxide 2,2,2-trifluoroacetate]	4.52 to 6.00
NCc1ccnc(S(=O)(=O)C[C@H]2C[C@@H](c3ccccc3)CN2S(=O)(=O)N2CCOCC2)c1 (single isomer, unassigned) [Example 195A]	4.52 to 6.00
NCc1ccnc(S(=O)(=O)C[C@@H]2C[C@H](c3ccccc3)CN2S(=O)(=O)N2CCOCC2)c1 (single isomer, unassigned) [Example 195B]	4.52 to 6.00
NCc1ccnc(S(=O)(=O)C[C@@H]2C[C@H](c3ccccc3)CN2S(=O)(=O)N2CCS(=O)(=O)CC2)c1 [Example 196A, 4-(((2S,4R)-2-(((4-(aminomethyl)pyridin-2-yl)sulfonyl)methyl)-4-phenylpyrrolidin-1-yl)sulfonyl)thiomorpholine 1,1-dioxide 2,2,2-trifluoroacetate]	6.00 to 6.30
NCc1ccnc(S(=O)(=O)C[C@H]2C[C@@H](c3ccccc3)CN2S(=O)(=O)N2CCS(=O)(=O)CC2)c1 [Example 196B, 4-(((2R,4S)-2-(((4-(aminomethyl)pyridin-2-yl)sulfonyl)methyl)-4-phenylpyrrolidin-1-yl)sulfonyl)thiomorpholine 1,1-dioxide 2,2,2-trifluoroacetate]	6.00 to 6.30
